From patent US12152010B2, “Preparation method for photo-activatable aggregation-induced emission probe with in-situ generation capability” (South China University of Technology, priority 2018, dated 2024)

How the values were obtained:
[1] = test system: HeLa cells; assay: Photo-controlled high-spatiotemporal-resolution imaging, 780 nm two-photon laser, multicellular environment; assay type: cell-based; conditions: under photo-control
Excerpt: In-situ generated compound III could be used for photo-controlled high-spatiotemporal-resolution imaging. […] The photo-controlled high-spatiotemporal-resolution imaging capability of in-situ generated compound III was particularly useful for monitoring the movement of organelles and studying the physiological functions of organelles in complex physiological environments.

[2] = test system: HeLa cells; assay: Photo-activatable fluorescence imaging under 405 nm laser in HeLa cells; assay type: cell-based; conditions: in-situ generated compound
[3] = test system: HeLa cells or MCF-7 cells; assay: Co-dyeing experiments with commercial organelle dyes; assay type: cell-based; conditions: co-dyeing with Nile Red, BODIPY493/503 or LysoTracker Red
[4] = test system: MCF-7 cells; assay: Photo-activatable fluorescence imaging under 405 nm laser in MCF-7 cells; assay type: cell-based; conditions: in-situ generated compound
[5] = Fluorescence emission in tetrahydrofuran/water or tetrahydrofuran/toluene mixed solutions (aggregation-induced emission); assay type: physicochemical; conditions: tetrahydrofuran:water (IV-1 509 nm, IV-2 570 nm) or tetrahydrofuran:toluene (IV-3 532 nm), 10^−5 mol/L
Excerpt: (§1) Mixing tetrahydrofuran and water according to different volume ratios (tetrahydrofuran:water=100:0, 90:10, 80:20, 70:30, 60:40, 50:50, 40:60, 30:70, 20:80, 10:90, 8:92, 6:94, 4:96, 2:98, 1:99) to form mixed solutions with different water contents; dissolving compound IV-1 (i.e., method 2-compound IV-1) into these mixed solutions to make the concentration of the compound at 10′ mol/L, and then detecting the fluorescence emission spectrum, with the results as shown in FIG. 1.
as §1, with “IV-2” for “IV-1”, “IV-2)” for “IV-1)”, “[…]” for “10′”, “2.” for “1.”
The in-situ generated compound IV-2 (in-situ compound IV-2) had the same photophysical properties as method 2-compound IV-2.
Mixing tetrahydrofuran and toluene according to different volume ratios (tetrahydrofuran:toluene=100:0, 90:10, 80:20, 70:30, 60:40, 50:50, 40:60, 30:70, 20:80, 10:90, 5:95, 1:99) to form mixed solutions with different toluene contents; dissolving compound IV-3 (i.e., method 2-compound IV-3) into these mixed solutions to make the concentration of the compound at […], and then detecting the fluorescence emission spectrum, with the results as shown in FIG. 3.
The in-situ generated compound IV-3 (in-situ compound IV-3) had the same photophysical properties as method 2-compound IV-3.

[6] = Quantum yield, fluorescence lifetime, absorption and emission in tetrahydrofuran solution and solid (thin film) state; assay type: physicochemical; conditions: for Increase in fluorescence lifetime / Increase in quantum yield: thin film state relative to tetrahydrofuran solution
Excerpt: By measuring the quantum yield and fluorescence lifetime of compounds IV-1 (method 2-compound IV-1), IV-2 (method 2-compound IV-2) and IV-3 (method 2-compound IV-3) in tetrahydrofuran solution and solid state (thin film state)) (Table 1), the following results were found relative to the cases in the tetrahydrofuran solution: compound IV-1 in the thin film state increased by 94.4 times in the quantum yield, and increased by 6.0 times in the fluorescence lifetime; compound IV-2 in the thin film state increased by 33.4 times in the quantum yield, and increased by 5.2 times in the fluorescence lifetime; compound IV-3 in the thin film state increased by 25.8 times in the quantum yield, and increased by 4.1 times in the fluorescence lifetime; therefore, the aggregation-induced emission property of compound IV was confirmed. […] The in-situ compounds IV-1 to IV-3 also had the photophysical properties in Table 1.

[7] = tetrahydrofuran solution state (10^−5 mol/L)

Row | Emission wavelength ([6]; solid state) | Fluorescence lifetime ([6]; solid state) | Quantum yield ([6]; solid state) | Absorption wavelength [6, 7] | Emission wavelength [6, 7] | Fluorescence lifetime [6, 7] | Quantum yield [6, 7] | Increase in fluorescence lifetime [6] | Increase in quantum yield [6] | SMILES | Photo-controlled sequential activation of organelles in different cells [1] | Fluorescence intensity increase ([2]; scanning time 50 s) | Organelle specificity of photo-activatable fluorescence imaging [3] | Fluorescence intensity increase ([4]; scanning time 50 s) | Ketoluminescence behaviour with increasing poor-solvent content [5] | Fluorescence intensity increase ([2]; irradiation time 10 min) | Fluorescence intensity increase ([4]; irradiation time 10 min)
1 |  |  |  |  |  |  |  |  |  | Oc1ccc(CN2CCOCC2)cc1C1Nc2ccccc2S1 (centres unmarked) [Compound III-3, 2-(2,3-dihydrobenzo[d]thiazol-2-yl)-4-(morpholinomethyl)phenol] | could sequentially activate lysosomes in different cells | approximately 6.2 times of the initial value | lysosomal specific photo-activatable fluorescence imaging | ~4.5 times of the initial value |  |  | 
2 | 509 nm | 4.96 ns | 66.1% | 334 nm | 452 nm | 0.83 ns | 0.7% | 6.0 times | 94.4 times | Oc1ccccc1-c1nc2ccccc2s1 [Compound IV-1, 2-(benzo[d]thiazol-2-yl)phenol] |  |  |  |  | showing the aggregation-induced emission property |  | 
3 | 532 nm | 6.39 ns | 28.4% | 341 nm | 445 nm | 1.56 ns | 1.1% | 4.1 times | 25.8 times | Oc1ccc(CN2CCOCC2)cc1-c1nc2ccccc2s1 [Compound IV-3, 2-(benzo[d]thiazol-2-yl)-4-(morpholinomethyl)phenol] |  |  |  |  | showing the aggregation-induced emission property |  | 
4 | 570 nm | 4.88 ns | 40.1% | 362 nm | 402 nm | 0.94 ns | 1.2% | 5.2 times | 33.4 times | COc1ccc(O)c(-c2nc3ccccc3s2)c1 [Compound IV-2, 2-(benzo[d]thiazol-2-yl)-4-methoxyphenol] |  |  |  |  | showing the aggregation-induced emission property |  | 
5 |  |  |  |  |  |  |  |  |  | COc1ccc(O)c(C2Nc3ccccc3S2)c1 (centres unmarked) [Compound III-2, 2-(2,3-dihydrobenzo[d]thiazol-2-yl)-4-methoxyphenol] | could sequentially activate lipid droplets in different cells |  | lipid droplet specific photo-activatable fluorescence imaging |  |  | approximately 53 times of the initial value | ~18 times of the initial value
6 |  |  |  |  |  |  |  |  |  | Oc1ccccc1C1Nc2ccccc2S1 (centres unmarked) [Compound III-1, 2-(2,3-dihydrobenzo[d]thiazol-2-yl)phenol] |  |  | lipid droplet specific photo-activatable fluorescence imaging |  |  | approximately 5.5 times of the initial value | ~9.0 times of the initial value
